“Also recorded” adds a separate entry of the source.
Experiments:
JNK = test: MAPK pathway activity: JNK phosphorylation (immunoblot); assay type: in vivo; details: mice treated prior to LPS injection
Protocol: (§1) MKK3 and MKK6 are the main regulators of the α, β, γ and δ p38MAPK isoforms.
(§2) Tissue extracts were prepared using Triton lysis buffer (20 mM Tris [pH 7.4], 1% Triton X-100, 10% glycerol, 137mM NaCl, 2mM EDTA, 25mM β-glycerophosphate, 1 mM sodium orthovanadate, 1mM phenylmethylsulfonyl fluoride, and 10µg/mL aprotinin and leupeptin). Extracts (30µg protein) and immunoprecipitates (prepared from 2 mg protein) were examined by protein immunoblot analysis with antibodies to ERK1/2, phospho-ERK1/2, phospho-MKK3/6, p38α MAPK, phospho-p38, phospho-hsp27, phospho-JNK1/2, JNK1/2, caspase 3, cleaved caspase 3, cleaved PARP and phospho-eEF2 kinase (Ser366), all from Cell Signaling and MKK3 (Pharmingen), MKK6 (Stressgen), and GAPDH and eEF2 (Santa Cruz Biotechnology). The anti-p38γ and p38δ antibodies were raised against the peptides which correspond to the C termini of the proteins.

ERK = test: MAPK pathway activity: ERK phosphorylation (immunoblot); assay type: in vivo; details: mice treated prior to LPS injection
Protocol: as §1, §2

p38δ = target: T1, p38δ (Mus musculus, UniProt Q9Z1B7); details: mice treated prior to LPS injection
T1 sequence (Q9Z1B7 1-366): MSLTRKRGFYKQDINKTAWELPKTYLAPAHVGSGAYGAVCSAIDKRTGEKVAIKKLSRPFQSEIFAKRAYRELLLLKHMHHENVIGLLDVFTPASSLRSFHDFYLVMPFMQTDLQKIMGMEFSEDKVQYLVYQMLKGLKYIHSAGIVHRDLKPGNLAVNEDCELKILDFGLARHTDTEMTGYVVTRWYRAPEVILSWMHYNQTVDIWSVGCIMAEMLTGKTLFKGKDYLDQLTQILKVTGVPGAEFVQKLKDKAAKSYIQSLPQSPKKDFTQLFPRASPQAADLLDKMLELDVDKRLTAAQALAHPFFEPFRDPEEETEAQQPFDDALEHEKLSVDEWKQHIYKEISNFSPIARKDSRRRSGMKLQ
Protocol: as §1, §2

p38α/β = test: MAPK pathway activity: phosphorylation of p38α substrate HSP27 (immunoblot); assay type: in vivo; details: mice treated prior to LPS injection
Protocol: as §1, §2

D-Gal+LPS-treated mice = test: D-Gal+LPS-induced liver damage (hepatitis) in mice treated with p38 inhibitors; assay type: in vivo; details: WT mice, inhibitor i.p. 15mg/kg prior to LPS injection
From the text: (§3) MKK3 and MKK6 are the main regulators of the α, β, γ and δ p38MAPK isoforms. […] The specific action of these inhibitors on MAPK pathway activity was firstly examined. […] No changes in ERK or JNK phosphorylation were observed.
(§4) Mkk3^-/- (B6.129-Map2k3^tm1Flv), Mkk6^-l- (B6.129-Map2k6^tm1Flv) were as previously described. p38γ (B6.129-Mapk12^tm1) and p38δ (B6.129-Mapk13^tm1) mice were crossed with B6.129P2-Lyz2tm1(cre)Ifo/J and back-crossed for ten generations to the C57BL/6J background (The Jackson Labs) and genotyped by PCR analysis of genomic DNA. Radiation chimeras were generated by exposing recipient mice to two doses of ionizing radiation ([…]) and reconstituting them with 2x10^7 donor bone marrow cells by injection into the tail vein. […] Specificity of the depletion of cell populations was determined by flow cytometry of blood samples collected during the experiment.
Serum activities of alanine transaminase (ALT) and aspartate aminotrasferase (AST) were measured using the ALT and AST Reagent Kit (Biosystems Reagents) with a Benchmark Plus Microplate Spectrophotometer. Serum concentrations of cytokines were measured by multiplexed ELISA with a Luminex 200 analyzer (Millipore). […]

IL6 = test: serum IL6 in D-Gal+LPS-treated mice (inhibitors); assay type: in vivo
From the text: as §3, §4
(§5) Serum activities of alanine transaminase (ALT) and aspartate aminotrasferase (AST) were measured using the ALT and AST Reagent Kit (Biosystems Reagents) with a Benchmark Plus Microplate Spectrophotometer. Serum concentrations of cytokines were measured by multiplexed ELISA with a Luminex 200 analyzer (Millipore).

[1] = test system: association of eEF2 with Tnfα mRNA; test: RNA-immunoprecipitation assay: eEF2 binding to Tnfα mRNA in RAW 264.7 cells; assay type: cell-based, Mouse; details: RAW 264.7 cells pretreated 10µM for 30 min before LPS (60min)
Protocol: (A-D) BM-derived macrophages from p38γ/δ^Lyz-KO and Lyzs-cre mice were treated with LPS (10µg/ml) or TNFα (20ng/ml). Data were analyzed by two-way ANOVA coupled to Bonferroni post-tests. • (A) ELISA of TNFα and IL-6 in supernatants. • (B) qRT-PCR of Tnfα and Il-6 mRNA normalized to Gapdh, • (C) Immunoblot of BM-derived macrophage (BMM) lysates. • (D) Flow cytometry of phospho-p38 in BM-derived macrophages stimulated with LPS and TNFα for 30 min. Intracellular phospho-p38 is depicted in blue; red corresponds to the isotype control. • (D-I) Cells were treated with LPS. Tnfα mRNA was detected by qRT-PCR in immunoprecipitates (1mg protein) obtained with anti-eEF2. mRNA amounts are expressed relative to the amount detected in control IgG immunoprecipitates. Data were analyzed by Student's t-test unless otherwise indicated. • (E) Tnfα mRNA in RAW 264.7 cell immunoprecipitates. • (F) Tnfα, Hif1α, and Il-6 mRNA in RAW 264.7 cell immunoprecipitates. […] Tnfα mRNA was measured in immunoprecipitates. • (G-H) Tnfα mRNA in immunoprecipitates of BM-derived macrophages from Lyzs-cre and 38γ/δ^Lyz-KO mice (G) or WT or ΔMKK3/6 mice (H) after stimulation (60min). eEF2 in immunoprecipitates was detected by immunoblot (upper panel).
To assess whether eEF2 controls TNFα elongation it was examined the binding of eEF2 to Tnfα mRNA in immunoprecipitates of mRNA-eEF2 complexes in RAW cells. […]

TNFα [2] = test: serum TNFα in D-Gal+LPS-treated mice (inhibitors); assay type: in vivo
From the text: as §3, §4, §5

[3] = clinical use; cited from earlier work
TNFα [4] = details: healthy males; cited from earlier work

In the case of C[S+]([O-])c1ccc(-c2nc(-c3ccncc3)c(-c3ccc(F)cc3)[nH]2)cc1 (stereo not drawn) [SB203580], the JNK phosphorylation (JNK) is reported as “No changes”, the ERK phosphorylation (ERK) is reported as “No changes” and the “inhibition of p38δ activation (suppression of phosphorylation of its substrate eEF2K)” value (p38δ) is reported as “only BIRB796 was able to inhibit”. For the same compound, the “inhibition of p38α/β (loss of phosphorylation of p38α substrate HSP27)” value (p38α/β) was “efficiently inhibited” and the “D-Gal+LPS-induced liver damage (hemorrhage, apoptosis and necrosis)” value (D-Gal+LPS-treated mice) was “intensifies; also recorded: exacerbated”.

For Cc1ccc(-n2nc(C(C)(C)C)cc2NC(=O)Nc2ccc(OCCN3CCOCC3)c3ccccc23)cc1 [BIRB796], the “serum levels of IL6” value (IL6) was “reduced”, the JNK phosphorylation (JNK) was “No changes” and the “association of eEF2 with Tnfα mRNA” value [1] was “abolished”. For the same compound, the ERK phosphorylation (ERK) was “No changes”, the “serum levels of TNFα” value (TNFα [2]) was “reduced” and the “inhibition of p38α/β (loss of phosphorylation of p38α substrate HSP27)” value (p38α/β) was “efficiently inhibited”. The liver enzyme elevations [3] was “some liver enzyme elevations” and the “D-Gal+LPS-induced liver damage (hemorrhage, apoptosis and necrosis)” value (D-Gal+LPS-treated mice) was “improves liver condition; also recorded: protected”.

For Cn1c(NC[C@@H](N)Cc2ccccc2)nc(-c2ccncc2)c(-c2ccc3ccccc3c2)c1=O [AMG 548], the “inhibition of ex-vivo LPS-induced TNFα” value (TNFα [4]) is listed as over 85% and the liver enzyme elevations [3] is listed as “random liver enzyme elevations”.

Reference: patent EP2727596A1, “eEF2/eEF2K as therapeutic target for treating TNF-alpha-related diseases” (Fundación Centro Nacional de Investigaciones …, priority 2012, dated 2014)
